Reference: article PMC10258243, “Identification and characterization of novel marine oxasqualenoid yucatecone against Naegleria fowleri” (International Journal for Parasitology: Drugs and Drug …, 2023)
Like-named read-outs stand apart in the source and are kept apart here.

Columns and labels:
N. fowleri ATCC® 30215™ = experiment: alamarBlue colorimetric activity assay, trophozoites; assay type: cell-based, Naegleria fowleri; conditions: for IC50: Naegleria fowleri, read-out: N. fowleri ATCC® 30215™ IC50; for N. fowleri ATCC® 30215™ SI (CC50/IC50): selectivity index
Method: (§1) The activity evaluation of the molecules was carried out in two different N. fowleri strains (ATCC® 30808™ and ATCC® 30215™) from the American Type Culture Collection (LG Promochem, Barcelona, Spain). The cytotoxicity of the compounds was evaluated using a murine macrophages cell line (ATCC® TIB-67). Cells were grown as previously described ([Rizo-Liendo et al., 2020]).
(§2) A colorimetric assay based on the alamarBlue® reagent was performed to evaluate the activity of the compounds in two different N. fowleri strains (ATCC® 30808™ and ATCC® 30215™). The same protocol optimized by Rizo-Liendo et al. was followed in these assays ([Rizo-Liendo et al., 2019]). Briefly, N. fowleri trophozoites (2 × 10^5 cells/mL) were incubated with serial dilutions (in the same culture media) of the compounds in a 96 well microtiter plate. Next, the alamarBlue® reagent was added and the plates were incubated at 37 °C. After 48 h, the fluorescence was read in an EnSpire Multimode Plate Reader (Perkin Elmer, Madrid, Spain) using a wavelength of excitation of 570 nm and a wavelength of emission of 585 nm.
(§3) All experiments were carried out in triplicate and mean values were also calculated.

N. fowleri ATCC® 30808™ = experiment: as above; assay type: cell-based, Naegleria fowleri; conditions: for IC50: Naegleria fowleri, read-out: N. fowleri ATCC® 30808™ IC50; for N. fowleri ATCC® 30808™ SI (CC50/IC50): selectivity index
Method: as §1, §2, §3

[1] = alamarBlue cytotoxicity assay; assay type: cell-based; conditions: mouse, J774A.1, 24 h, mean ± SD, read-out: Murine macrophages CC50
Method: as §1
In order to evaluate the cytotoxicity of the compounds a murine macrophages cell line (ATCC® TIB-67) was used. A known concentration of cells (10^5 cells/mL) was incubated with serial dilutions of the molecules. After that, the alamarBlue® reagent was added and the plates were incubated for 24 h at 37 °C and in a 5% of CO2 atmosphere ([Arberas-Jiménez et al., 2020]). The same alamarBlue® based protocol described in the section above was assessed to obtain de cytotoxic concentration 50 (CC50).

[2] = test system: Cysts of N. fowleri ATCC® 30808™; experiment: alamarBlue activity assay against cysts; assay type: cell-based; conditions: Naegleria fowleri, ATCC30808, read-out: IC50 against N. fowleri cysts
Method: Cysts of N. fowleri ATCC® 30808™ strain were used in these assays. Cysts were obtained as previously described and performing the protocol optimized by our group ([Arberas-Jiménez et al., 2022]). Mature cysts (2 × 10^5 cells/mL) were incubated with serial dilutions of yucatecone during 24 h at 37 °C. Subsequently, the media was removed and fresh bactocasitone was added with the aim to facilitate the excystation. Finally, the alamarBlue® reagent was added and the plates were incubated for 72 more hours at 37 °C prior to reading the fluorescence and determining the IC50 as described in section 2.4.

[3] = test system: N. fowleri ATCC® 30808™ trophozoites; experiment: Hoechst 33342/propidium iodide double stain for chromatin condensation; assay type: cell-based, Naegleria fowleri; conditions: IC50 and IC90 of compound, 24 h
Method: (§4) The aim of these assays was to evaluate the presence of different metabolic events that are shown in programmed cell death like process (PCD-like) undergoing cells. […] After the treatment of the cells with these concentrations of the molecules, a 50% and a 10%, respectively, of the amoebae in the well remain as viable. Finally, the protocol for each kit was performed following manufacturers’ instructions. Moreover, the percentage of stained cells after the incubation of the treated and non-treated cells with each kit and the ratio of fluorescence between the aggregate and monomer forms of the JC-1 was evaluated. For this, the EVOS M5000 Cell Imaging System (Life Technologies, Madrid, Spain) was used and each experiment was performed in triplicate. In each experiment five different images were evaluated with a minimum number of cells of 80.
A double stain detection kit Hoechst 33342/propidium iodide (PI) (Life Technologies, Madrid, Spain) and an EVOS M5000 Cell Imaging System (Life Technologies, Madrid, Spain) were used in this experiment. The assay was performed following manufacturer's instruction.
This kit enables to distinguish between three different group of cells: A light blue fluorescence corresponds to live cells whereas in the treated cells an intense blue fluorescence is shown. Finally, red fluorescence appears in dead cells as the IP binds to their DNA.

[4] = test system: N. fowleri ATCC® 30808™ trophozoites; experiment: SYTOX Green plasmatic membrane permeability; assay type: cell-based, Naegleria fowleri; conditions: IC50 and IC90 of compound, 24 h
Method: as §4
The SYTOX Green kit (Life Technologies, Madrid, Spain) was used for the evaluation of the cellular plasmatic membrane damage. This stain binds to the DNA of those cells who have suffered alterations in the permeability of the plasmatic membrane and emits a high green fluorescence. […] This assay was performed following manufacturer's instruction and modified by [Sifaoui et al. (2018)]. An EVOS M5000 Cell Imaging System (Life Technologies, Madrid, Spain) was used to obtain the images.

[5] = test system: N. fowleri ATCC® 30808™ trophozoites; experiment: CellROX Deep Red intracellular ROS; assay type: cell-based, Naegleria fowleri; conditions: IC50 and IC90 of compound, 24 h
Method: as §4
The CellROX Deep Red fluorescent assay (Invitrogen, Termo Fisher Scientifc, Madrid, Spain) was used to perform the ROS levels evaluation. After the cell incubation with the yucatecone the stain was added and incubated for half an hour in the dark. Finally, images were obtained with an EVOS M5000 Cell Imaging System (Life Technologies, Madrid, Spain). The presence of ROS is detected by intense red fluorescence.

[6] = test system: N. fowleri ATCC® 30808™ trophozoites; experiment: JC-1 mitochondrial membrane potential; assay type: cell-based, Naegleria fowleri; conditions: IC50 and IC90 of compound, 24 h
Method: as §4
The mitochondrial membrane potential decrease was determined using the JC-1 Mitochondrial Membrane Potential Assay Kit (Cayman Chemicals, Vitro SA, Madrid, Spain). The JC-1 dye presents potential-dependent accumulation in mitochondria. At high membrane potentials (healthy cells) JC-1 dye accumulates as “J-aggregates” in the mitochondria and emits red fluorescence whereas at low membrane potentials (cells undergoing PCD-like responses) the dye is presented in monomeric form in the cytoplasm, emitting green fluorescence. […]

N. fowleri trophozoites = experiment: Celltiter-Glo ATP level measurement; assay type: cell-based, Naegleria fowleri
Method: as §4
The ATP level measurement was performed with the Celltiter-Glo® Luminescent Cell Viability Assay (Promega Biotech Ibérica, Madrid, Spain). […]

[7] = ATCC30215, trophozoite stage, 48 h, mean ± SD, triplicate
[8] = ATCC30808, trophozoite stage, 48 h, mean ± SD, triplicate, N/A = no activity observed

SMILES | IC50 (N. fowleri ATCC® 30215™; [7]) | N. fowleri ATCC® 30215™ SI (CC50/IC50) (N. fowleri ATCC® 30215™) | IC50 (N. fowleri ATCC® 30808™; [8]) | N. fowleri ATCC® 30808™ SI (CC50/IC50) (N. fowleri ATCC® 30808™) | CC50 at 24 h [1] | CC50 at 24 h ([1]; J774A.1 murine macrophage cell line (ATCC TIB-67)) | IC50 (N. fowleri ATCC® 30215™; ATCC30215, 48 h) | IC50 (N. fowleri ATCC® 30808™; ATCC30808, 48 h) | N. fowleri ATCC® 30808™ SI (CC50/IC50) (N. fowleri ATCC® 30808™; listed as Yucatecone) | IC50 [2] | chromatin condensation (Hoechst 33342) [3] | propidium iodide staining [3] | plasma membrane permeability (SYTOX Green) [4] | intracellular ROS level (CellROX Deep Red) [5] | mitochondrial membrane potential (JC-1) [6] | decrease of ATP production (N. fowleri trophozoites; treated with the IC50, compared to negative control) | decrease of ATP production (N. fowleri trophozoites; treated with the IC90, compared to negative control)
C=C(CCC(=O)C1(C)CCC(C(C)(C)O)O1)C1CCC2OC(C3(C)CCC(Br)C(C)(C)O3)CCC2(C)O1 (stereo not shown) [18-KetoDT (6), 18-ketodehydrothyrsiferol] | 12.7 ± 2.64 µM | 3.17 | 15.3 ± 2.82 µM | 2.61 | 40 ± 1.06 µM |  |  |  |  |  |  |  |  |  |  |  | 
C[C@@H]1[C@H](O)[C@@H](C)/C=C/C=C/C=C/C=C/C=C/C=C/C=C/[C@H](O[C@@H]2O[C@H](C)[C@@H](O)[C@H](N)[C@@H]2O)C[C@@H]2O[C@](O)(C[C@@H](O)C[C@@H](O)[C@H](O)CC[C@@H](O)C[C@@H](O)CC(=O)O[C@H]1C)C[C@H](O)[C@H]2C(=O)O [Amphotericin B, reference compound] | 0.16 ± 0.02 µM | >1204.82 | 0.12 ± 0.03 µM | >1652.89 |  | > 200 µM |  |  |  |  |  |  |  |  |  |  | 
CCCCCCCCCCCCCCCCOP(=O)([O-])OCC[N+](C)(C)C [Miltefosine, reference compound] | 81.6 ± 7.23 µM | 1.57 | 38.7 ± 4.23 µM | 3.30 |  |  |  |  |  |  |  |  |  |  |  |  | 
CC(CCC(=O)C1(C)CCC(C(C)(C)O)O1)C1CCC2OC(C3(C)CCC(Br)C(C)(C)O3)CCC2(C)O1 (stereo not shown) [Yucatecone (4), yucatecone] |  | >5.23 |  | >2.98 | > 85 µM |  | 16.2 ± 1.23 µM | 28.5 ± 5.04 µM | > 2.98 | 9.43 ± 1.48 µM | induces chromatin condensation | no fluorescence is shown | caused plasma membrane permeabilty damage | increased the intracellular ROS level production | induces the depolarization of the mitochondrial membrane potential | 54.80% | 90.44%
